Source: US20220267310A1, “QUINAZOLINE AND CINNOLINE DERIVATIVES AS DNA-PK INHIBITOR” (MEDSHINE DISCOVERY INC., priority 2019, published 2022)
Read-outs that look alike come from different tables or passages of the source.

Columns and labels:
[1] = molecular target: T1, PI3K (p110β/p85α) (Homo sapiens, UniProt P42338); test: PI3K (p110β/p85α) kinase inhibitory activity (HTRF); format: biochemical
T1 construct: Eurofins Pharma Discovery Service (contract assay)
Protocol: (§1) This experiment was tested at Eurofins Pharma Discovery Service, Reaction Biology Corp. (RBC)
(§2) […] DNA-PK: Mg/ATP; GST-cMyc-p53; EDTA; Ser15 antibody; ATP: 10 μM; biotinylated phosphatidylinositol-3,4,5-triphosphate; GST label GRP1 PH domain; streptavidin and phycocyanin; europium-labelled monoclonal antibody against GST.
(§3) PI3K (p110β/p85α) was incubated in a determination buffer containing phosphatidylinositol 4,5-diphosphate and Mg/ATP (density as required). The reaction was initiated by adding a mixture of Mg/ATP. After incubating at room temperature for 30 min, a termination solution containing EDTA and biotinylated phosphatidylinositol-3,4, 5-triphosphate was added to terminate the reaction. Finally, a detection buffer (containing labeled anti-GST monoclonal antibody, PH domain of GRP1 with GST label and streptavidin and phycyanin and […]) was added. Then, the board was read in time-resolved fluorescence mode, and an HTRF signal was measured according to the formula HTRF=10000×(Em665 nm/Em620 nm).

[2] = Pharmacokinetic evaluation in mice, IV and PO; format: in vivo, Balb/c female mice; conditions: for Bioavailability (%) / bioavailability: mouse; for bioavailability: plasma; for Vd: read-out: Vdss
Protocol: The tested compound was mixed with 10% DMSO/50% PEG400/40% water, vortexized and ultrasonic to prepare 0.2 mg/mL or 0.4 mg/ml, approximately clarified solution, which was filtered by a microporous membrane and then standby. Balb/c female mice of 18-20 g were selected and given the candidate compound solution intravenously at a dose of 1 or 2 mg/kg. The tested compound was mixed with 10% DMSO/50% PEG400/40% water, vortexized and ultrasonic to prepare 0.2 mg/mL or 1 mg/mL approximately clarified solution, which was filtered by a microporous membrane and then standby. Balb/c female mice of 18 to 20 g were selected and given orally the candidate compound solution at a dose of 2 or 10 mg/kg. Whole blood was collected for a certain period of time, and plasma was prepared. Drug concentration was analyzed by LC-MS/MS method, and pharmacokinetic parameters were calculated by Phoenix WinNonlin software (US Pharsight company).
C0: instantaneous concentration required after intravenous injection; Cmax: the highest blood concentration after administration; Tmax: time required to reach peak concentration after administration; T1/2: the time required for blood drug concentration to decrease by half; Vdss: apparent volume of distribution, which refers to the ratio constant of drug dosage to blood concentration when a drug reaches dynamic equilibrium in vivo. Cl: clearance rate, referring to drug apparent distribution volume number removed from the body per unit time; Tlast: time of last detection point: AUC0-last: an area under a drug duration curve, referring to an area surrounded by the blood drug concentration curve on the time axis; Bioavailability: a measure of the rate and extent of drug absorption into the blood circulation, which was an important index to evaluate drug absorption degree.

[3] = molecular target: T2, PI3K (p120γ) (Homo sapiens, UniProt P48736); test: PI3K (p120γ) kinase inhibitory activity (HTRF); format: biochemical
T2 construct: Eurofins Pharma Discovery Service (contract assay)
T2 sequence (P48736 whole entry): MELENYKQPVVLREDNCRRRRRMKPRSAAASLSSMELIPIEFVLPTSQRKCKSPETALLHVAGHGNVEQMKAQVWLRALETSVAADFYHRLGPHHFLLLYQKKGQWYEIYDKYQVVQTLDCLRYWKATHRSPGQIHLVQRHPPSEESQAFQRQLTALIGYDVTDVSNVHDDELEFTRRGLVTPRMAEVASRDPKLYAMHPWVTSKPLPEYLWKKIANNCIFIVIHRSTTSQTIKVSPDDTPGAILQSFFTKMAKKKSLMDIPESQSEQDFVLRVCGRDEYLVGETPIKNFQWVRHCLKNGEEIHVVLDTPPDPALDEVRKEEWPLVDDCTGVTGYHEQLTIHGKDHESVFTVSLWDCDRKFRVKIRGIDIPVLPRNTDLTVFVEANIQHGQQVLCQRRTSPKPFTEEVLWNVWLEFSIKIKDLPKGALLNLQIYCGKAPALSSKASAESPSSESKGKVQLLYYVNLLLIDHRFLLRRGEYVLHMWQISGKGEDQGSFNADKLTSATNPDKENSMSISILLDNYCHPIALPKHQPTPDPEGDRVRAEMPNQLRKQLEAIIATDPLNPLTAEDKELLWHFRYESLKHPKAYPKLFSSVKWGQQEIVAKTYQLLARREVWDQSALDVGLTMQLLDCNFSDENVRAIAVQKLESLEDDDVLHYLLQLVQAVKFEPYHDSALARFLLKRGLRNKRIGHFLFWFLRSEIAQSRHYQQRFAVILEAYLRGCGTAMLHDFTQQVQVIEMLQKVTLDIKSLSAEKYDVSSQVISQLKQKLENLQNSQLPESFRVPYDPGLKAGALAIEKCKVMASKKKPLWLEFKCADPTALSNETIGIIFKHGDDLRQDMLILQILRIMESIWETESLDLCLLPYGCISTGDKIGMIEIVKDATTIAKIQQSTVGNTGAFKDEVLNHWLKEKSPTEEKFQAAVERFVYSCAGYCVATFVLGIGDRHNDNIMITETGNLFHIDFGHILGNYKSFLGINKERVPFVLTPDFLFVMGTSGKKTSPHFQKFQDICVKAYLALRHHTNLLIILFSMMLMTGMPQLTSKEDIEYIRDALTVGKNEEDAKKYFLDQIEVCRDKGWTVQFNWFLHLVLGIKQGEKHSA
Protocol: as §1, §2
as §3, with “(p120γ)” for “(p110β/p85α)”, “phosphatidylinositol-3,4,5-triphosphate” for “phosphatidylinositol-3,4, 5-triphosphate”

[4] = female, Balb/c, IV(1 mg/kg), mouse plasma
[5] = female, Balb/c, IV(2 mg/kg), mouse plasma
[6] = female, Balb/c, PO(2 mg/kg), mouse plasma
[7] = female, Balb/c, PO(10 mg/kg), mouse plasma

T1 sequence (P42338 whole entry, species assumed): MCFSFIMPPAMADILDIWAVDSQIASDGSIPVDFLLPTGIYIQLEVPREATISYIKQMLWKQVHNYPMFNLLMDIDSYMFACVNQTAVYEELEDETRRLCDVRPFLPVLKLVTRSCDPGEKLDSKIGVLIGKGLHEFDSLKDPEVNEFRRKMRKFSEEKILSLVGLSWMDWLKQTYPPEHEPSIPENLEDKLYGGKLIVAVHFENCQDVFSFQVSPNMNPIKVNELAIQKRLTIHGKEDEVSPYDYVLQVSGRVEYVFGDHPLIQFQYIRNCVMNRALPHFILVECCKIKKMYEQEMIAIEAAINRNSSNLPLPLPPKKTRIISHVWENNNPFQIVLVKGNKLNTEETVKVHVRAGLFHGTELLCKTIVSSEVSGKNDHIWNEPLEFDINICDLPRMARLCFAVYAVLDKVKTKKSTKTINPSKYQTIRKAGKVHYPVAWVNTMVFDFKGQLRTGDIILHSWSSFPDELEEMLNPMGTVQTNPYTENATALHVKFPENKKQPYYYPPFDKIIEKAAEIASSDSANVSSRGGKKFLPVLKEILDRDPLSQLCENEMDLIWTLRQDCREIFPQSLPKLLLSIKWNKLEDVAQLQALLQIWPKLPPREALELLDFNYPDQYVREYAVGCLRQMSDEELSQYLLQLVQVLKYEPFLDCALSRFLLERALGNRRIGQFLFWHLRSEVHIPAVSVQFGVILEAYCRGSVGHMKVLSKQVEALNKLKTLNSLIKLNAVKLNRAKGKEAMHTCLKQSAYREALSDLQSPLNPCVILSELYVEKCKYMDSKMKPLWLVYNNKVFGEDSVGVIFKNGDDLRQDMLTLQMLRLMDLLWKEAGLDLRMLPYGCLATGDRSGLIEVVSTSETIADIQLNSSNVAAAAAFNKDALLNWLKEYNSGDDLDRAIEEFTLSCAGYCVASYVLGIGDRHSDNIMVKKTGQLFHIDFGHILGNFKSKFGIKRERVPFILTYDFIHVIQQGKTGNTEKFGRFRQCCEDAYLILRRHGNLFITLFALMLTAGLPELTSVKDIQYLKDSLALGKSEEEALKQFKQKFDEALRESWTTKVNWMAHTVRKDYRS
T1 sequence (P27986 whole entry partner, species assumed): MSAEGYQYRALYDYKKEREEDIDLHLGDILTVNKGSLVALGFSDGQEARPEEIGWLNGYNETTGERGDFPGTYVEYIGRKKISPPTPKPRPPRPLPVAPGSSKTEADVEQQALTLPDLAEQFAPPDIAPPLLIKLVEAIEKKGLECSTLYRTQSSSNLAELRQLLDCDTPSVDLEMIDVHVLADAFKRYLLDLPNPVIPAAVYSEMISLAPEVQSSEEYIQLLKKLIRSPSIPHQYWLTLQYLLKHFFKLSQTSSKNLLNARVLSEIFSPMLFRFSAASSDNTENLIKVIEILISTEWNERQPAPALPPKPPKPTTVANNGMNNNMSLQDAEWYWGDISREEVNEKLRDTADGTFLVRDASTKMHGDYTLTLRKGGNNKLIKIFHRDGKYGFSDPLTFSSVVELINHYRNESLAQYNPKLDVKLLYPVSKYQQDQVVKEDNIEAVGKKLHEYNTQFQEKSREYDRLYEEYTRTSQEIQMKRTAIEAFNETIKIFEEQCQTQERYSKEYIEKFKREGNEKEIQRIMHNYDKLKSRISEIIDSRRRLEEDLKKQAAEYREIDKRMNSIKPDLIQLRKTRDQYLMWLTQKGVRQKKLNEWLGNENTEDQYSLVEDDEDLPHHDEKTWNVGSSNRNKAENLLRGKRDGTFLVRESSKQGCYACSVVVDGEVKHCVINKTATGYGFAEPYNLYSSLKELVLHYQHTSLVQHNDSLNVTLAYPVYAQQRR

Compound: COc1ccc(C(O)c2cc(-c3cnnc4c(F)c(N5CCOCC5)cc(F)c34)c(F)cc2Cl)nn1 (single isomer, unassigned) [Embodiment 19]
- IC50 [1]: 345 nM
- AUC0-last ([2]; IV(1 mg/kg), mouse plasma): 1.569 µM·h
- C0 ([2]; IV(1 mg/kg), mouse plasma): 1290 nM
- Cl ([2]; IV(1 mg/kg), mouse plasma): 20.2 mL/min/kg
- T1/2 ([2]; IV(1 mg/kg), mouse plasma): 78.6 min
- Tlast ([2]; IV(1 mg/kg), mouse plasma): 8.00 h
- Vdss ([2]; IV(1 mg/kg), mouse plasma): 2.13 L/kg
- AUC0-last ([2]; IV(2 mg/kg), mouse plasma): 3.832 µM·h
- C0 ([2]; IV(2 mg/kg), mouse plasma): 2250 nM
- Tlast ([2]; IV(2 mg/kg), mouse plasma): 8.00 h
- Bioavailability (%) ([2]; PO(2 mg/kg)): 47.9%
- AUC0-last ([2]; PO(2 mg/kg), mouse plasma): 1.503 µM·h
- Cmax ([2]; PO(2 mg/kg), mouse plasma): 448 nM
- T1/2 ([2]; PO(2 mg/kg), mouse plasma): 488 min
- Tlast ([2]; PO(2 mg/kg), mouse plasma): 8.00 h
- Tmax ([2]; PO(2 mg/kg), mouse plasma): 15 min
- Bioavailability (%) ([2]; PO(10 mg/kg)): 70.5%
- AUC0-last ([2]; PO(10 mg/kg), mouse plasma): 13.737 µM·h
- Cmax ([2]; PO(10 mg/kg), mouse plasma): 2740 nM
- T1/2 ([2]; PO(10 mg/kg), mouse plasma): 107 min
- Tlast ([2]; PO(10 mg/kg), mouse plasma): 12.0 h
- Tmax ([2]; PO(10 mg/kg), mouse plasma): 60 min
- IC50 [3]: 9150 nM

Compound: COc1ccc([C@@H](O)c2cc(-c3nncc4cc(N5CCOCC5)ccc34)c(F)cc2Cl)nn1 [Embodiment M3814, reference compound]
- IC50 [1]: 33 nM
- Tlast ([2]; IV(1 mg/kg), mouse plasma): 6.00 h
- Tlast ([2]; IV(2 mg/kg), mouse plasma): 4.00 h
- Tlast ([2]; PO(2 mg/kg), mouse plasma): 8.00 h
- Tlast ([2]; PO(10 mg/kg), mouse plasma): 8.00 h
- bioavailability ([2]; female, Balb/c, PO(2 mg/kg)): 25.8%
- bioavailability ([2]; female, Balb/c, PO(10 mg/kg)): 54%
- AUC(0-t) [2, 4]: 1.33 µM·h
- C0 [2, 4]: 1970 nM
- clearance [2, 4]: 25.9 mL/min/kg
- half-life [2, 4]: 42.4 min
- Vd [2, 4]: 1.34 L/kg
- AUC(0-t) [2, 5]: 1.41 µM·h
- C0 [2, 5]: 2160 nM
- clearance [2, 5]: 49 mL/min/kg
- half-life [2, 5]: 28.7 min
- Vd [2, 5]: 1.9 L/kg
- AUC(0-t) [2, 6]: 0.688 µM·h
- Cmax [2, 6]: 580 nM
- half-life [2, 6]: 128 min
- Tmax ([2]; female, Balb/c, PO(2 mg/kg), mouse plasma, read-out: Tmax): 15 min
- AUC(0-t) [2, 7]: 3.73 µM·h
- Cmax [2, 7]: 2060 nM
- half-life [2, 7]: 85.8 min
- Tmax ([2]; female, Balb/c, PO(10 mg/kg), mouse plasma, read-out: Tmax): 30 min
- IC50 [3]: 1220 nM
